# Where two headings read alike, the source gives them in different places.
# Key:
# [1] = system: Paenibacillus larvae (Eric II test strain); assay: Inhibition zone test on Columbia agar; assay type: cell-based; settings: Paenibacillus larvae, 24 h, 34.5° C.
# Procedure: As test organisms, several different strains of Paenibacillus larvae were used.
# Overnight cultures of the vegetative forms of bacteria were prepared in BHI (brain heart infusion) liquid medium.
# For the inhibition zone test, 500 μL of overnight culture were added to 15-20 mL of Columbia agar, mixed and poured onto a petri dish. After the agar solidified, either punched wholes are filled with different amounts of test compounds or test compounds are pipetted on paper discs (5 mm Ø). The plate is then incubated for 24 h (34.5° C.) and zones of inhibition are measured and given in mm. Lactic acid and penicillin G were used as positive controls.
# E II—Eric II (test strain of Pl)
# honeybee larvae = assay: LPC tolerance in non-infected artificially reared larvae, mortality until day 12; assay type: in vivo, Apis mellifera; settings: LPC 10 μg/larva on day 1, 2 and 3, no spores, replicates separated by /, Nlarvae 70/48/47/48/40
# Melissococcus plutonius = assay: Antimicrobial assay in liquid Basal Medium against Melissococcus plutonius (MIC); assay type: cell-based; settings: Melissococcus plutonius
# Procedure: M. pl. was cultured in liquid Basal Medium (BM) for 4 days at 35° C. and from here serial dilutions were carried out to estimate CFU/ml by plating onto BM agar plates. 5 days later CFU were count and concentration was estimated to be 3.46*10^6 CFU/ml. For the antimicrobial assay, an inoculum of 50 μl of the liquid culture is added to 1 mL of BM liquid medium. A set of different substances were tested in different concentrations (2, 5 and 10 ppm) in order to find out their inhibitory effect against M. pl growth. For substances tested, concentration applied and results see table 1.2. Three replicates per substance were included in the experiment. 5 days after the experiment was started OE (optical extinction) was measured at 600 nm.
smiles,measurement,setting,value
CCCCCCCC/C=C\CCCCCCCC(=O)OC[C@@H](O)COP(=O)([O-])OCC[N+](C)(C)C [1-O-oleoyl-sn-glycero-3-phosphocholine],zone of inhibition at 5 µg/disc,[1]; amount 5 μg,3.5 mm
same,zone of inhibition at 10 µg/disc,[1]; amount 10 μg,5 mm
same,Ndead larvae total,honeybee larvae; days 1-12,9/6/5/3/3
same,Ndead larvae day 1,honeybee larvae,0/0/0/0/0
same,Ndead larvae day 2,honeybee larvae,0/2/0/0/0
same,Ndead larvae day 3,honeybee larvae,0/0/3/0/0
same,Ndead larvae day 4,honeybee larvae,1/0/1/0/1
same,Ndead larvae day 5,honeybee larvae,0/0/0/0/0
same,Ndead larvae day 6,honeybee larvae,1/1/0/0/1
same,Ndead larvae day 7,honeybee larvae,0/0/1/0/0
same,Ndead larvae day 8,honeybee larvae,2/0/0/0/0
same,Ndead larvae day 9,honeybee larvae,1/2/0/3/0
same,Ndead larvae day 10,honeybee larvae,2/0/0/0/0
same,Ndead larvae day 11,honeybee larvae,0/1/0/0/1
same,Ndead larvae day 12,honeybee larvae,2/0/0/0/0
same,MIC,"Melissococcus plutonius; 120 h, M. pl. in BM liquid medium, OE at 600 nm after 5 days, read-out: MIC",> 3.8 µM
same,MIC,"Melissococcus plutonius; 120 h, M. pl. in BM liquid medium, OE at 600 nm after 5 days, read-out: MIC (ppm)",2 µg/mL
same,MIC,"Melissococcus plutonius; read-out: in vitro M. pl. inhibitory activity, MIC",2.5 µg/mL

# Source: patent US9993492B2, “Lysophospholipids and lysophospholipid analogues against honeybee brood diseases” (University of Graz, priority 2013, dated 2018)
